Values belong to the compound of their own block, whether it stands above or below them. Where a SMILES comes first, the peptide text is derived from it.
Tests used:
AF9 [1] = molecular target: T1, AF9 (Homo sapiens, UniProt P42568); assay: Solution competitive SPR assay of peptides, AF9-DOT1L interaction; format: binding; set-up: against AF9(497-568) and ENL (489-559) proteins running different tested concentrations over CM5 chip; GB1 (pGB1-LIC vector); made in house; host or cells: Escherichia coli BL21 (DE3); settings: read-out: IC50 against AF9 (block PPI DOT1L/AF9)
T1 sequence (P42568 497-568): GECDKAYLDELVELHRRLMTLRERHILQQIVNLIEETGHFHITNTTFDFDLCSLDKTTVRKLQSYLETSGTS
Protocol: (§1) Solution competitive SPR based assay was performed to determine the IC50 values of DOT1L peptides. […] Response units (RU) were measured at 15 seconds in the dissociation phase and the specific binding was calculated by subtracting the control surface (Fcl) signal from the surfaces with immobilized Mocr-DOT1L. IC50 values were determined by non-linear least squares analysis using Graph Pad Prism 5.0 software.

ENL [2] = molecular target: T2, ENL (Homo sapiens, UniProt Q03111); assay: Solution competitive SPR assay of peptides, ENL-DOT1L interaction; format: binding; settings: read-out: IC50 against ENL (block PPI DOT1L/ENL)
T2 construct: against AF9(497-568) and ENL (489-559) proteins running different tested concentrations over CM5 chip; MBP (pMSCG9-LIC vector); made in house; host or cells: Escherichia coli BL21 (DE3)
T2 sequence (Q03111 489-559): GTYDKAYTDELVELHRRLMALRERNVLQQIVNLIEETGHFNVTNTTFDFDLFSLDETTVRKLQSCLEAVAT
Protocol: as §1

GB1-AF9 = molecular target: T3, GB1-AF9 (Homo sapiens, UniProt P42568); assay: FP competitive binding, displacement of Flu-DOT1L from GB1-AF9; settings: read-out: IC50, competition with DOT1L 10-mer fluorescein-labeled peptide for AF9
T3 construct: the recombinant GB1-AF9 protein (residues 497-568); made in house; host or cells: Escherichia coli BL21 (DE3)
T3 sequence (P42568 497-568): T1 sequence (P42568 497-568)
Protocol: AF4 (749-775) protein and several peptides (AF4 14 mer, un-labeled and biotin-labeled DOT1L 10 mer peptide) were tested for their ability to displace the Flu-DOT1L from GB1-AF9 protein. The dose-dependent binding experiments were carried out in 96-well plates with serial dilutions of tested protein or peptides, GB1-AF9 protein (500 nM) and Flu-DOT1L (10 nM) in the same assay buffer and final volume of 125 μL. The polarization values were measured after 3 h incubation. Negative controls containing GB1-AF9 protein and probe (equivalent to 0% inhibition), and positive controls containing only free Flu-DOT1L probe (equivalent to 100% inhibition), were included on each assay plate. IC50 values were determined by nonlinear regression fitting of the competition curves (GraphPad Prism 5.0).

AF9 [3] = molecular target: T4, AF9 (Homo sapiens, UniProt P42568); assay: Saturation Transfer Difference (STD) NMR; format: binding
T4 sequence (P42568 1-568): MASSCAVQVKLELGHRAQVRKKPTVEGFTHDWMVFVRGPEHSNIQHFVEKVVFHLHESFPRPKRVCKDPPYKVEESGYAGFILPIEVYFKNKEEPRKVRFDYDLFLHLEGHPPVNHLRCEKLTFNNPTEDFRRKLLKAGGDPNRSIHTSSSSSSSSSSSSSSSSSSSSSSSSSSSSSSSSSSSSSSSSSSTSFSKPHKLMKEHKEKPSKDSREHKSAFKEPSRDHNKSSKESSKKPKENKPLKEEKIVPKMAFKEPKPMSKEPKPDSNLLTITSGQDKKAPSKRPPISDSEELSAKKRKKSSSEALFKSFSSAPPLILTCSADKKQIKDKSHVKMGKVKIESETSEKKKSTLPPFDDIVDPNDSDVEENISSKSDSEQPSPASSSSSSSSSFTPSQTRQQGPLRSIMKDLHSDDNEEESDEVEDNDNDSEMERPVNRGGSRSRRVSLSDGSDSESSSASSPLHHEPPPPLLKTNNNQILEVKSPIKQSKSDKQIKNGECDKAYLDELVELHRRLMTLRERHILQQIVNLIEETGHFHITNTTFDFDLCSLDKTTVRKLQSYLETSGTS
Protocol: C) Globally fitted concentration series of 38 (100, 50, 25, 12.5 and 6.25 μM) binding to immobilized AF9 using OctetRed System (see Example 12).
To provide further validation of the hit selection in addition to the biochemical assays Saturation Transfer Difference (STD), NMR spectroscopy was used. NMR spectroscopy has been successfully utilized to detect and characterize the direct binding of small-molecule compounds to large biomolecules. This technique is also allowing characterization of the binding interactions and maps the ligand-protein contacts in the bound state, delineating which chemical moieties of the ligand molecule are key for molecular recognition by the protein (group epitope mapping, FIG. 20A). […] The direct binding of 38 was also confirmed with ThermoFluor biophysical binding assay. ThermoFluor exploits a well-known biophysical phenomenon where small changes in the intrinsic melting temperature of proteins in the presence of ligands are related to the equilibrium-binding constant. Compounds that interact with the native form of the protein will shift the equilibrium to the left, increasing the Tm, the temperature at which half the protein is unfolded. In the presence of compound 38, the Tm of MBP-AF9 protein increases in a dose-dependent manner, giving ΔTm of 1.2 degree in […] (FIG. 20B).

AF9 [4] = molecular target: T1, AF9; assay: SPR competitive binding assay of small molecules, AF9-DOT1L; set-up: against AF9(497-568) and ENL (489-559) proteins running different tested concentrations over CM5 chip; GB1 (pGB1-LIC vector); made in house; host or cells: Escherichia coli BL21 (DE3); settings: SPR competitive based assay; read-out: AF9 IC50 ± SD
From the text: Several secondary assays have already been developed to support hit confirmation and the hit-to-probe optimization process. The established and optimized SPR-based competitive assay utilizing DOT1L protein (826-1095) immobilized on the CM5 sensor chip was used as a secondary counter screen assay to validate binding of compounds to AF9. […] Both assays gave similar IC50 values.
(§2) To further validate the binding of the confirmed compounds and identify potential promiscuous inhibitors, several secondary assays have been developed to support hit confirmation and the hit-to-probe optimization process. In order to determine that the compounds bind effectively to the target and disrupt protein-protein interaction, a SPR competitive binding assay was used. This assay uses a platform that differs from the FP-based assay where DOT1L recombinant protein (residues […]) is immobilized on a CM5 chip, allowing for testing of the inhibitors for their ability to disrupt AF9-DOT1L protein-protein interactions.

[5] = Microsomal stability in mouse liver microsome; format: in vitro ADME; settings: with NADPH
Protocol: For optimization of this class of inhibitors besides testing their binding affinity, the physico-chemical properties and microsomal stability will be tested in order to obtain improvement at multiple levels, as necessary for fully optimized compounds. To obtain initial information about the stability of this chemical class of compounds, compounds 42 and 48 have been tested in microsomal stability using mouse liver microsome. […] If their structure is analyzed, the major difference between these two compounds is the R2 substituent, furan vs. thiophen.

ENL [6] = molecular target: T2, ENL; assay: SPR competitive binding assay of small molecules, ENL; settings: SPR competitive based assay; read-out: ENL IC50 ± SD
From the text: as §2
This class of compounds was also tested for their binding against ENL protein, which is highly homologous with AF9.

MBP-ENL (489-559) = molecular target: T5, MBP-ENL (489-559) (Homo sapiens, UniProt Q03111); assay: Isothermal titration calorimetry with MBP-ENL; format: binding; settings: ITC, MBP-tagged ENL, 1:1 stoichiometry; read-out: KD to ENL protein
T5 construct: MBP-ENL (489-559) was dialysed extensively; made in house; host or cells: Escherichia coli BL21 (DE3)
T5 sequence (Q03111 489-559): T2 sequence (Q03111 489-559)
Protocol: Isothermal titration calorimetry—ITC was carried out using a Nano-ITC Micro Calorimeter (TA Instruments) at 20° C. MBP-ENL (489-559) was dialysed extensively against 50 mM Na2HPO4, (pH 7.5) and 100 mM NaCl, and 80 μM was used for titration studies of DOT1L 16-mer and 10-mer peptides, and 110 μM for DOT1L 7-mer titration. Tested peptides dissolved in the same buffer at 400 μM (DOT1L 16-mer and 10-mer) or 500 μM (DOT1L 7-mer) were tested by injecting 2 μl aliquots into the protein sample, at time intervals of […], to ensure that the titration peak returned to the baseline. The ITC data were analyzed by NanoAnalyze software package using a one site-binding model.

H3K79 methylation = assay: Global H3K79 methylation in MLL-AF9 transformed cells; format: cell-based, mouse; settings: 6 days treatment of MLL-AF9 transformed cells
From the text: FIG. 23 presents cell growth curves of A) MLL-AF9 and B) Hoxa9/Meis1 transformed mouse cells and C) adult LSKs after treatment with 38. D) H3K79 methylation after 6 days treatment with 38 and EPZ004777 DOT1L inhibitor (see, e.g., Daigle, et al., Cancer Cell 20, 53-65 (2011)).
This example involves the assessment of cellular effects of compound 38. […] Compound 38 inhibited growth of MLL-AF9 cells in a dose-dependent manner (FIG. 23A), with cell growth inhibition starting after 4 days of treatment. […] The hypothesis predicts that compounds that can block the DOT1L recruitment, but not its catalytic activity, will not affect normal hematopoiesis, as well as the global level of H3K79 methylation. To test this hypothesis, the toxicity of compound 38 was tested on purified LSK (lin-sca-1+ckit+) progenitors from adult wild type mice (FIG. 23C).

DOT1L (826-1095) = molecular target: T6, DOT1L (826-1095) (Homo sapiens, UniProt Q8TEK3); assay: SPR binding of ENL fragments to immobilized Mocr-DOT1L (826-1095)
T6 construct: made in house; host or cells: Escherichia coli BL21 (DE3)
T6 sequence (Q8TEK3 826-1095): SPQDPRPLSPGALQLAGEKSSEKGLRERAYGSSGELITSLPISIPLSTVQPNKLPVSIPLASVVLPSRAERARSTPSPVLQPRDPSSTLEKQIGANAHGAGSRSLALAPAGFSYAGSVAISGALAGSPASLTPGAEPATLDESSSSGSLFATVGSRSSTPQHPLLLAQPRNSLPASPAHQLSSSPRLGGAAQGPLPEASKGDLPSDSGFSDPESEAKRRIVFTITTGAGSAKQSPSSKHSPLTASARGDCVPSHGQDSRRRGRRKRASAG
Protocol: FIG. 7 pertains to analyzing the C-terminal domain in ENL protein and its binding to DOT1L. A. Alignment of ENL and AF9 C-terminal domain. The predicted α-helices are marked with Helix 1 and Helix 2 and conserved residues are presented in grey. […] The kon, koff and Kd were calculated by simultaneous non-linear regression using 1:1 binding model and BIAevaluation 3.1 software. The experimental data are shown in black while the global fit analyses are shown in grey.
Surface Plasmon Resonance (SPR) binding studies—All SPR based experiments were performed on a BIAcore 2000 (BIAcore, GE Healthcare) instrument. Different tested DOT1L recombinant proteins were immobilized on a CM5 sensor chip by standard EDC/NHS coupling chemistry followed by ethanolamine deactivation of the surfaces. For immobilization of full length Flag-DOT1L protein, anti-Flag antibody (Sigma, Anti-FLAG M2) was immobilized on CM5 chip by the same amine coupling chemistry. HEK293 whole cells lysate with overexpressed Flag-DOT1L at 2.4 μg/l total protein concentration was injected over the Flag antibody surface, followed by injecting of AF9 and ENL in different concentrations. […] Binding parameters, kon, koff and Kd were calculated by simultaneous non-linear regression using BIAEvaluation software.

Compound: CCCc1ccc(S(=O)(=O)N2c3ccccc3NC3=C(C(=O)CCC3)C2c2ccco2)cc1 (stereo not drawn) [Compound 42]
IC50 (AF9 [4]): 47.1 ± 2.3 µM
half time in mouse liver microsome [5]: 2 min
IC50 (ENL [6]): 58.1 ± 12 µM

Compound: CC[C@H](C)[C@H](NC(=O)[C@@H]1CCCN1C(=O)[C@H](CC(C)C)NC(C)=O)C(=O)N[C@@H](CO)C(=O)N[C@H](C(=O)N1CCC[C@H]1C(=O)N[C@@H](CC(C)C)C(N)=O)[C@@H](C)CC [DOT1L 7 mer, Ac-LPISIPL-NH2] (Ac-LPISIPL-NH2)
Kd (MBP-ENL (489-559)): 3.4 µM

Compound: CC(C)N(CCCNC(=O)Nc1ccc(C(C)(C)C)cc1)C[C@H]1O[C@@H](n2ccc3c(N)ncnc32)[C@H](O)[C@@H]1O [EPZ004777, reference compound]
global H3K79 methylation level (H3K79 methylation): decreased global level of H3K79 methylation

Compound: ENL H2: recombinant fragment of ENL protein corresponding to predicted helix 2 (EETGHFNVTNTTFDFDLFSLDETTVRKLQSCLEAVAT)
Kd (DOT1L (826-1095)): 14.6 µM

The next lines start with the values.

IC50 (AF9 [1]): 0.2 µM
IC50 (ENL [2]): 0.43 µM
IC50 (GB1-AF9): 0.28 µM
Compound: CC[C@H](C)[C@H](NC(=O)[C@H](CCCCN)NC(=O)[C@@H](NC(=O)[C@H](CCSC)NC(=O)[C@H](CC(C)C)NC(C)=O)C(C)C)C(=O)N[C@H](C(=O)N[C@@H](CC(C)C)C(=O)N[C@@H](CC(=O)O)C(=O)N[C@@H](CC(C)C)C(=O)N[C@@H](CC(C)C)C(=O)N[C@@H](CO)C(=O)N[C@@H](CCCNC(=N)N)C(=O)N[C@H](C(=O)N1CCC[C@H]1C(N)=O)[C@@H](C)CC)[C@@H](C)O [AF4 14 mer, reference compound] (Ac-LMVKITLDLLSRIP-NH2)

STD effects (direct binding to AF9) (AF9 [3]): strong STD effects
Compound: COc1cccc(Nc2nc(N3CCOCC3)c3c(n2)N(C)NC3)c1 [Compound 36]

IC50 (AF9 [4]): 24.8 ± 1.3 µM
half time in mouse liver microsome [5]: > 60 min
IC50 (ENL [6]): 19.7 ± 4 µM
Compound: CCc1ccc(S(=O)(=O)N2c3ccccc3NC3=C(C(=O)CCC3)C2c2cccs2)cc1 (stereo not drawn) [Compound 48]

Kd (DOT1L (826-1095)): 2.8 µM
Compound: ENL H1: recombinant fragment of ENL protein corresponding to predicted helix 1 (GTYDKAYTDELVELHRRLMALRERNVLQQIVNLIEETGHFNVTNTTFDFDLFSLDE)

IC50 (GB1-AF9): 0.56 µM
Compound: recombinant AF4 protein: AF4 recombinant protein (749-775 residues) (LSPLRDTPPPQSLMVKITLDLLSRIPQ)
